Experimental data from PubChem BioAssay (NCI).
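Interpolation was linear, between the two tested concentrations surrounding the appropriate level; five concentrations were tested over 48 hours in 96-well plates. GI50 is the concentration that inhibits growth by half. TGI is the concentration that stops growth completely.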

Legend:
Experiment in all cases: growth of human tumour cells (NCI), 48 h
[1] = system: SF-539 CNS
[2] = system: T-47D breast
[3] = system: DU-145 prostate
[4] = system: SF-268 CNS
[5] = system: EKVX NSCLC
[6] = system: UACC-62 melanoma
[7] = system: NCI-H460 lung
[8] = system: MOLT-4 leukemia
[9] = system: PC-3 prostate
[10] = system: M14 melanoma

Structure (SMILES)	GI50 [1] [µM]	TGI [1] [µM]	GI50 [2] [µM]	TGI [2] [µM]	GI50 [3] [µM]	TGI [3] [µM]	GI50 [4] [µM]	TGI [4] [µM]	GI50 [5] [µM]	TGI [5] [µM]	GI50 [6] [µM]	TGI [6] [µM]	GI50 [7] [µM]	TGI [7] [µM]	GI50 [8] [µM]	TGI [8] [µM]	GI50 [9] [µM]	TGI [9] [µM]	GI50 [10] [µM]	TGI [10] [µM]
COc1cc(C(=O)N2N=C(c3ccc(S(C)(=O)=O)cc3)CC2c2ccco2)cc(OC)c1OC (centres undefined)	3.12	17.4	3.79	> 100	7.04	> 78.1	8.93	> 100	21.3	> 100	3.82	> 100	3.51	> 100	3.08	> 100	2.93	> 100	5.81	> 87.6
COc1cc2c(cc1O)-c1c(cnn1-c1ccc([N+](=O)[O-])cc1)CCC2		33.4		> 100		> 100		> 100		80.5		8.42		> 100		6.2		58.7		49.6
CCCCOc1ccc(NC(=O)n2nc(N)c3ccccc32)cc1	17.2	35.7	17	> 88.2	19.8	70	20.3	> 100	17.4	85.1	14.7	38.3	13	31.2	0.921	34.8	13.9	54.1	17.7	42.2
CS(=O)(=O)OCC1OC(n2ccc(NC(=O)c3ccccc3)nc2=O)CC1OS(C)(=O)=O (centres undefined)		> 100		> 100		> 100		> 100		> 100		> 100		> 100		> 100		> 100		> 100
N#C/C(=N\Nc1ccc(Cl)cc1)C(=O)Nc1cc(-c2ccccc2)nn1-c1ccccc1	3.29	> 100	2.01	7.12	3.9	> 100	2.65	> 100	2.64	> 100	2.03	> 100	2.51	> 100	3.5	> 100	2.4	> 100	3.7	> 100
COc1cc2c3c(n(CCCN(CCN)CCCn4c5c(c6cc(OC)c(OC)cc6c4=O)C(=O)c4cc6c(cc4-5)OCO6)c(=O)c2cc1OC)-c1cc2c(cc1C3=O)OCO2	0.238	0.731	0.457	> 100	0.663	> 100	0.794	> 29.3	11.9	> 62.6	0.24	0.858	0.469	13.6	0.0846		2.57	> 45.2	0.752	18.3
C#CCN(Cc1nc2cc(C(F)(F)F)ccc2nc1-c1ccccc1)c1ccc(OC(F)(F)F)cc1	20	41.2	39.1	> 100	36.5	> 100	47.5	> 100	32.6	> 100	48.6	> 100	38	> 100	32.2	> 100	44.4	> 100	50.3	> 100
CC(C)[C@H]1CC[C@H]2[C@@H](CC[C@H]3[C@](C)(CN)CCC[C@]23C)C1	1.59	2.95	1.96	4.52	1.95	3.58	2.36	6.04	4.11	17	3.38	14.3	1.68	3.31	2.21	5.2	2.36	7.14	1.77	3.18
